Assay results taken from EP0076669A1, “Novel 3-phenyl-1-indanamines, pharmaceutical compositions and methods of preparation” (KEFALAS A/S, priority 1981, dated 1983).
pIC50: −log10 of the molar value. Structures can show the parent of a compound that is named as a salt. Where two headings read alike, the source gives them in different places.

What was measured:
[1] = molecular target: T1, ^3H-DA uptake in striatal synaptosomes (Rattus norvegicus, UniProt P23977); assay: biochemical; type: biochemical, Rats
T1 construct: the two corpura striata are dissected out and gently homogenized; from tissue; host or cells: rat corpus striatum, synaptosomal P2 fraction
T1 sequence (P23977 whole entry): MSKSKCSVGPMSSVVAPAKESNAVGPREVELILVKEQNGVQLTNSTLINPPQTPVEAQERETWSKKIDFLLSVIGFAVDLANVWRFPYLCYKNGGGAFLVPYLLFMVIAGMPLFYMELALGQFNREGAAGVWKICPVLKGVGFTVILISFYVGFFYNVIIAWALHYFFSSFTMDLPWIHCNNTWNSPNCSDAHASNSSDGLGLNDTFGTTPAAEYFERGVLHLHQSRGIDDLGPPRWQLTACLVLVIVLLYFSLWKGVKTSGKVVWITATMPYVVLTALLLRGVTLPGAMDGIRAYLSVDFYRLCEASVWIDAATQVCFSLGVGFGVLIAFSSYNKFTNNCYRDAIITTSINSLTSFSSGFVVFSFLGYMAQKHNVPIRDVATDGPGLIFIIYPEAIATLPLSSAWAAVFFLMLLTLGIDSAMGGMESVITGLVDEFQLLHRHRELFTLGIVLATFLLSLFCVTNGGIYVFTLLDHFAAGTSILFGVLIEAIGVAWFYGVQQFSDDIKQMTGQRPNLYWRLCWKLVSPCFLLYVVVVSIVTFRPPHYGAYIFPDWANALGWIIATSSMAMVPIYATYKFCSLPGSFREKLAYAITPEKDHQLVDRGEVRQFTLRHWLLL
Description: ^3H-DA uptake in striatal synaptosomes in vitro.
0.32 M sucrose containing 1 mM Nialamide
Krebs-Ringer-phosphate buffer, pH 7.4
3,4-dihydroxyphenylethylamine [ethyl-1-^3H(N)] = ^3H-DA, spc. act. app. 15 Ci/mmol, New England Nuclear
Thomas Tissue Grinder, clearance 0.004-0.006 inch.
Rats are killed by a blow to their head, exsanguinated and their brains removed. The brain is placed on a precooled glassplate, and the two corpura striata are dissected out and gently homogenized in 40 volumes of ice cold 0.32 M sucrose containing 1 mM of nialamide using a hand homogenizer with teflon pestle. The P2-fraction (synaptosomal fraction) is obtained by centrifugation (600 g, 10 min., 25000 g, 55 min. 4 °C) and suspended in 40 volumes of a modified Krebs-Ringer-phosphate buffer, pH 7.4. To 200µl of the synaptosomal fraction on ice are added 3700 µl modified Krebs-Ringer-phosphate buffer - containing test compounds. After a preincubation at 37°C for 5 min. […] The incubation is terminated by filtering the samples under vacuum through Millipore filters with a wash of 5 ml buffer containing 10 µM of unlabelled DA. After solubilizing the filters in 1 ml of cellosolve the radioactivity is determined by liquid scintillation counting after the addition of 10 ml of Insta-Gel. The unspecific binding of ^3H-DA is determined by incubating control samples on ice instead of at 37 °C.
All experiments are performed in ttriplicate.
The mean of all control samples and ice samples are calculated.

[2] = system: tetrabenazine induced ptosis; assay: Tetrabenazine ptosis antagonism; type: in vivo; details: Mus musculus, ip, 0.5 h; i.p., mice; tetrabenazine 40 mg/kg i.p. 30 min after test substance
Description: For insoluble substances the doses 0, 1/8, 1/32 and 1/128 of "i.^p. LD50" are used. 3 mice are used for each dose level. Thirty minutes after administration of test substance, tetrabenazine, 40 mg/kg, is injected i.p. Ptosis is evaluated 30 minutes after administration of tetrabenazine, the following rating scale being used: 0 = normal eyes, 1=1/4 closed eyes, 2 = 1/2 closed eyes, 3 = 3/4 closed eyes and 4 = completely closed eyes. Ptosis is evaluated 30 seconds after tilting the cage 3 times. The tilting is carried out in such a way that the animals slide along the floor of the cage.
The results are recorded as % inhibition of ptotic score calculated on the basis of the score of the control group. If ptotic score for the control group is < 10 the test is rejected and another is performed. The registration can also be done as an on line procedure.

potentiation of 5-HTP = assay: 5-HTP potentiation (5-HTP syndrome); type: in vivo; details: Mus musculus, ip, 0.5 h; i.p., mice; 5-HTP 100 mg/kg i.v. 30 min after test substance; read-out: 5-HTP potentation,ED50
Description: The test substance is given i.p. or p.o. in the doses 10, 10, 2.5, 0.63 and 0 mg/kg. Three mice are used for each dose level. One of the groups on the highest dose is used as control of the compounds own effect. […] Thirty minutes after administration of test substance, 5-HTP, 100 mg/kg i.v. is given (injection time 5-10 sec.). After this 5-HTP dose the animals remain unaffected. If the animals have been pretreated with a substance, which inhibits the re-uptake of 5-HT, a 5-HTP syndrome will occur. This is characterized by the following symptoms: 1) excitation, 2) tremor, and 3) abduction of the hind limbs.
After the administration of 5-HTP the animals are observed for 15 minutes and each animal is given one point for each symptom present. Thus, the maximal score for a group consisting of 3 mice is 9.
The results are stated as fractions: 0/9, 1/9, 2/9 ..... 8/9, 9/9, where 0, 1, 2 ..... 8, 9 are the number of points per group after the dose in question.

[3] = rat striatal synaptosomes, 3H-DA 12.5 nM, read-out: Uptake Inhibition IC50 DA

## CCN(CC)[C@@H]1C[C@@H](c2ccc(F)cc2)c2ccc(C)cc21 (relative stereo) [Lu 18-200-c]
[1]; [3]
  pIC50: 6.68
[2]
  ED50: 63 µmol/kg

## CN(C)[C@@H]1C[C@H](c2ccc(Cl)c(Cl)c2)c2ccc(F)cc21 (relative stereo) [Lu 19-144-c]
[2]
  ED50: > 111 µmol/kg
Potentiation of 5-HTP
  ED50: 29 µmol/kg

## CN[C@@H]1C[C@@H](c2ccc(Cl)c(Cl)c2)c2ccc(OC)cc21 (relative stereo) [Lu 20-015-o]
[2]
  ED50: 7 µmol/kg
Potentiation of 5-HTP
  ED50: 14 µmol/kg

## CN[C@@H]1C[C@H](c2ccc(Cl)c(Cl)c2)c2ccc(OC)cc21 (relative stereo) [Lu 20-016-o]
[2]
  ED50: 14 µmol/kg
Potentiation of 5-HTP
  ED50: 3 µmol/kg

## CN[C@@H]1C[C@H](c2ccc(Cl)c(Cl)c2)c2ccc(O)cc21 (relative stereo) [Lu 20-030]
[2]
  ED50: 15 µmol/kg
Potentiation of 5-HTP
  ED50: 59 µmol/kg

## CN(C)[C@@H]1C[C@@H](c2ccc(Cl)c(Cl)c2)c2ccc(O)cc21 (relative stereo) [Lu 20-031-b, trans N,N-dimethyl-3-(3,4-dichlorophenyl)-6-hydroxy-1-indanamine, hydrobromide]
[2]
  ED50: 97 µmol/kg
Potentiation of 5-HTP
  ED50: 18 µmol/kg

## COc1ccc2c(c1)[C@H](N(C)C)C[C@H]2c1ccc(Cl)c(Cl)c1 (relative stereo) [Lu 20-049-o]
[2]
  ED50: 5.9 µmol/kg
Potentiation of 5-HTP
  ED50: 37 µmol/kg

## CN(C)CCC=C1c2ccccc2CCc2ccccc21 [Amitrip-tyline, amitriptyline, reference compound]
[1]
  pIC50: 5.27
[2]
  ED50: 7 µmol/kg

## CN(C)CCCC1(c2ccc(F)cc2)OCc2cc(C#N)ccc21 (centres unmarked) [Citalo-pram, reference compound]
[2]
  ED50: 20 µmol/kg
Potentiation of 5-HTP
  ED50: 3.3 µmol/kg

## CNC1CC(c2ccc(F)cc2)c2ccc(F)cc21 (centres unmarked) [Lu 13-164-o]
[2]
  ED50: 22 µmol/kg
Potentiation of 5-HTP
  ED50: 57 µmol/kg

## CN(C)C1CC(c2ccc(F)cc2)c2ccccc21 (centres unmarked) [Lu 19-008-c]
[1]; [3]
  pIC50: 6.60
[2]
  ED50: > 137 µmol/kg
Potentiation of 5-HTP
  ED50: 25 µmol/kg

## CN(C)C1CC(c2ccc(N)cc2)c2ccc(F)cc21 (centres unmarked) [Lu 19-022-c]
[1]; [3]
  pIC50: 6.77
[2]
  ED50: 19 µmol/kg
Potentiation of 5-HTP
  ED50: 14 µmol/kg

## CCNC1CC(c2ccc(Cl)c(Cl)c2)c2ccccc21 (centres unmarked) [Lu 19-041-c]
[1]; [3]
  pIC50: 7.21
[2]
  ED50: > 117 µmol/kg
Potentiation of 5-HTP
  ED50: 24 µmol/kg

## Clc1ccc(C2CC(NCc3ccccc3)c3ccccc32)cc1Cl (centres unmarked) [Lu 19-072-c]
[2]
  ED50: > 99 µmol/kg
Potentiation of 5-HTP
  ED50: > 99 µmol/kg

## OCCNC1CC(c2ccc(Cl)c(Cl)c2)c2ccccc21 (centres unmarked) [Lu 19-073-c]
[2]
  ED50: > 111 µmol/kg
Potentiation of 5-HTP
  ED50: > 111 µmol/kg

## Clc1ccc(C2CC(NCCc3ccccc3)c3ccccc32)cc1Cl (centres unmarked) [Lu 19-079-o]
[2]
  ED50: > 85 µmol/kg
Potentiation of 5-HTP
  ED50: > 85 µmol/kg

## CNC1CC(c2ccc(F)c(Cl)c2)c2ccccc21 (centres unmarked) [Lu 19-086-c]
[2]
  ED50: 32 µmol/kg
Potentiation of 5-HTP
  ED50: 30 µmol/kg

## CNC1CC(c2ccc(F)cc2)c2ccc(C)cc21 (centres unmarked) [Lu 19-091-c]
[2]
  ED50: > 137 µmol/kg
Potentiation of 5-HTP
  ED50: 55 µmol/kg

## CN(C)C1CC(c2ccc(F)c(F)c2)c2ccccc21 (centres unmarked) [Lu 19-096-c]
[2]
  ED50: 13 µmol/kg
Potentiation of 5-HTP
  ED50: 42 µmol/kg

## CN(C)C1CC(O)(c2ccc(F)c(Cl)c2)c2ccccc21 (centres unmarked) [Lu 19-114, N,N-dimethyl-3-(3-chloro-4-fluorophenyl)-3-hydroxy-1-indanamine]
[2]
  ED50: 14 µmol/kg
Potentiation of 5-HTP
  ED50: 26 µmol/kg

## COc1ccc2c(c1)C(N(C)C)CC2c1ccc(Cl)c(Cl)c1 (centres unmarked) [Lu 20-050]
[2]
  ED50: 119 µmol/kg
Potentiation of 5-HTP
  ED50: 26 µmol/kg

## CN1Cc2c(N)cccc2C(c2ccccc2)C1 (centres unmarked) [Nomi-phensine, nomiphensine, reference compound]
[2]
  ED50: 4.3 µmol/kg
Potentiation of 5-HTP
  ED50: > 56 µmol/kg
